Molecules are shown by their SMILES. ≈ marks a conversion by molar mass, not a printed value.

The nature of the series: physchem. The settings on record: DMSO.

Molecule `CCCNC(=O)c1nnc2c(-c3cnccc3OC)cccc2c1N` displayed a solubility of 28.1 µM (≈ 9.48 µg/mL).

`COc1ccc(OC)c(-c2c(F)ccc3c(N)c(C(=O)NC4CCC4)nnc23)c1` had a solubility of 2.8 µM (≈ 1.11 µg/mL).

Consider `COc1ccc(OC)c(-c2cccc3c(N)c4c(nc23)CN(C2CCCC2)C4=O)c1`, for which the solubility stood at 2.9 µM (≈ 1.17 µg/mL).

`CCCNC(=O)c1nnc2c(-c3ccc(C)cc3C)cccc2c1N` gave a solubility of 0.8 µM (≈ 0.268 µg/mL).

`COc1ccc(OC)c(-c2cccc3c(N)c(C(=O)NC4CCC4)nnc23)c1` showed a solubility of 4.3 µM (≈ 1.63 µg/mL).

Take `COc1ccc(OC)c(-c2c(F)ccc3c(N)c(C(=O)NC4CC4)nnc23)c1`: the solubility is 8.8 µM (≈ 3.37 µg/mL).

With `COc1ccc(OC)c(-c2cccc3c(N)c4c(nc23)CN(C2CC(C)C2)C4=O)c1` (stereo not given), the solubility was 0.9 µM (≈ 0.363 µg/mL).

With `COc1ccc(OC)c(-c2cccc3c(N)c(C(=O)NCCC(F)(F)F)nnc23)c1`, the solubility is 2.8 µM (≈ 1.18 µg/mL).

In turn, `CCCNC(=O)c1nnc2c(-c3cc(OC)ccc3OC)c(F)ccc2c1N` showed a solubility of 3.3 µM (≈ 1.27 µg/mL).

The molecule `CCNC(=O)c1nnc2c(-c3cc(OC)ccc3OC)cccc2c1N` yielded a solubility of 8.2 µM (≈ 2.89 µg/mL).

The molecule `CCCNC(=O)c1nnc2c(-c3c(F)cccc3OC)cccc2c1N` [AZD7325] returned a solubility of 7.6 µM (≈ 2.69 µg/mL).

Turning to `CCCN1Cc2nc3c(CC(C)(C)C)cccc3c(N)c2C1=O`, the solubility amounted to 3.4 µM (≈ 1.06 µg/mL).

`COc1ccc(-c2c(F)ccc3c(N)c(C(=O)NC4CC4)nnc23)c(OC)n1` yielded a solubility of 2 µM (≈ 0.767 µg/mL).

On to `COc1ccc(OC)c(-c2c(F)ccc3c(N)c4c(nc23)CN(C2CC2)C4=O)c1`, for which the solubility turned out to be 1 µM (≈ 0.393 µg/mL).

As for `COc1ccc(OC)c(-c2cccc3c(N)c(C(=O)NC(C)C)nnc23)c1`, the solubility came out at 4.7 µM (≈ 1.72 µg/mL).

Molecule `CNC(=O)c1nnc2c(-c3cc(OC)ccc3OC)cccc2c1N` gave a solubility of 2.6 µM (≈ 0.88 µg/mL).

On to `CCNC(=O)c1nnc2c(-c3cc(OC)ccc3OC)c(F)ccc2c1N`, for which the concentration in solution (solubility) came to 5 µM (≈ 1.85 µg/mL).

For the molecule `COc1ccc(OC)c(-c2cccc3c(N)c(C(=O)NC4CC(C)C4)nnc23)c1` (stereo not given), the solubility turned out to be 1.8 µM (≈ 0.706 µg/mL).

On to `CCCNC(=O)c1nnc2c(-c3cc(C)ccc3C)cccc2c1N`, for which the solubility came out at 1.4 µM (≈ 0.468 µg/mL).

The molecule `COc1ccc(OC)c(-c2cccc3c(N)c(C(=O)NC4CC4)nnc23)c1` registered a solubility of 8.9 µM (≈ 3.24 µg/mL).

The molecule `CCCNC(=O)c1nnc2c(-c3cnc(OC)nc3OC)cccc2c1N` returned a solubility of 1.9 µM (≈ 0.7 µg/mL).

The molecule `CCCNC(=O)c1nnc2c(-c3cc(C)ccc3OC)cccc2c1N` gave a solubility of 8.3 µM (≈ 2.91 µg/mL).

With `CCCNC(=O)c1nnc2c(-c3ccccc3C)cccc2c1N`, the concentration in solution (solubility) came to 26.8 µM (≈ 8.59 µg/mL).

`COc1ccc(OC)c(-c2c(F)ccc3c(N)c4c(nc23)CN(C2CCC2)C4=O)c1` displayed a solubility of 1 µM (≈ 0.407 µg/mL).

With `COc1cc(-c2c(F)ccc3c(N)c(C(=O)NC4CC4)nnc23)c(OC)nn1`, the solubility is 6.2 µM (≈ 2.38 µg/mL).

`CCN1Cc2nc3c(-c4cc(OC)ccc4OC)c(F)ccc3c(N)c2C1=O` had a solubility of 0.3 µM (≈ 0.114 µg/mL).

For `CCCNC(=O)c1nnc2c(CC(C)C)cccc2c1N`, the solubility came to 4.6 µM (≈ 1.32 µg/mL).

The molecule `CCCNC(=O)c1nnc2c(-c3ccccc3)cccc2c1N` returned a solubility of 9.5 µM (≈ 2.91 µg/mL).

On to `CCC(C)NC(=O)c1nnc2c(-c3cc(OC)ccc3OC)cccc2c1N` (stereo not given), for which the solubility came to 1.2 µM (≈ 0.457 µg/mL).

The molecule `COc1ncc(C)cc1-c1cccc2c(N)c(C(=O)NC3CC3)nnc12` returned a solubility of 10.8 µM (≈ 3.77 µg/mL).

`COc1ccc(OC)c(-c2cccc3c(N)c4c(nc23)CN(C2CC2)C4=O)c1` came in with a solubility of 4.9 µM (≈ 1.84 µg/mL).

For `COc1ccc(OC)c(-c2cccc3c(N)c(C(=O)NCCCO)nnc23)c1`, the concentration in solution (solubility) was 11 µM (≈ 4.21 µg/mL).

Molecule `COc1ccc(OC)c(-c2c(F)ccc3c(N)c(C(=O)NC(C)C)nnc23)c1` registered a solubility of 7.8 µM (≈ 3 µg/mL).

`COc1ccc(OC)c(-c2cccc3c(N)c4c(nc23)CN(C2CCC2)C4=O)c1` returned a solubility of 2.3 µM (≈ 0.896 µg/mL).

The molecule `CCCNC(=O)c1nnc2c(-c3cccc(C)c3)cccc2c1N` had a solubility of 8 µM (≈ 2.56 µg/mL).

As for `COc1ccc(OC)c(-c2cccc3c(N)c4c(nc23)CN(C)C4=O)c1`, the solubility worked out at 0.8 µM (≈ 0.28 µg/mL).

Turning to `CCCNC(=O)c1nnc2c(-c3cc(OC)ccc3OC)cccc2c1N` [AZD6280], the solubility turned out to be 3.9 µM (≈ 1.43 µg/mL).

Molecule `CCN1Cc2nc3c(-c4cc(OC)ccc4OC)cccc3c(N)c2C1=O` displayed a solubility of 0.5 µM (≈ 0.182 µg/mL).

The molecule `CCCNC(=O)c1nnc2c(-c3cc(C)cc(C)c3)cccc2c1N` registered a solubility of 0.8 µM (≈ 0.268 µg/mL).

In turn, `CCC(C)(C)N1Cc2nc3c(-c4cc(OC)ccc4OC)cccc3c(N)c2C1=O` displayed a solubility of 2 µM (≈ 0.811 µg/mL).

The values are drawn from ChEMBL document CHEMBL1782003, “Development and SAR of functionally selective allosteric modulators of GABAA receptors” (Bioorg Med Chem, 2011).
